# Measurements: US20240336897A1, “COMPOSITIONS AND METHODS FOR CELL REPROGRAMMING” (CORNELL UNIVERSITY, priority 2021, published 2024)
# Legend:
# biPSCs [1] = assay: Base medium lacking individual inhibitors for GSK3β, MEK1/2 or TGFβ/activin/nodal; settings: GMTi base medium lacking this inhibitor
# Experimental: (§1) The biPSC colonies emerging from reprogramming trials were manually picked, dissociated into single cells using TrypLE™ (ThermoFisher) and plated on iMEFs in GMTi medium. For passaging, confluent cultures of biPSCs were rinsed once with PBS and incubated with TrypLE for 5 minutes. Cells were then collected in fibroblast medium, and centrifuged at 200×rcf for 5 minutes. The pellet was then resuspended in GMTi medium for plating on iMEFs. Passaging of biPSCs was performed repeatedly (every 3-4 days), with concurrent examination and imaging of morphology, growth characteristics and expression of PSC markers. […] Base medium conditions lacking individual inhibitors for GSK3β, MEK1/2 or TGFβ/activin/nodal were also prepared and tested for their ability to sustain pluripotent cultures. All cultures were maintained in a humidified incubator at 37° C. under an atmosphere of 5% CO2.
# biPSCs [2] = settings: MEK1/2 and GSK3B inhibitors used together; cited from earlier work
# biPSCs [3] = assay: Sustenance of biPSCs using specific pathway inhibition (GMTi medium): repeated passaging, morphology; settings: at least over a few passages, cell morphology
# Experimental: as §1
Compound,effect of removing the single inhibitor from biPSC cultures (biPSCs [1]),effect on biPSCs (biPSCs [2]),effect of excluding the factor from the GMTi medium on biPSCs (biPSCs [3])
Cc1cccc(-c2nn(C(=S)Nc3ccccc3)cc2-c2ccnc3ccccc23)n1 [A83-01],resulted in differentiation,,
Cc1c[nH]c(-c2cnc(NCCNc3ccc(C#N)cn3)nc2-c2ccc(Cl)cc2Cl)n1 [CHIR99021],resulted in differentiation,"suspend biPSCs in a pluripotent state, but without the ability to proliferate",
O=C(NOC[C@H](O)CO)c1ccc(F)c(F)c1Nc1ccc(I)cc1F [PD0325901],,"suspend biPSCs in a pluripotent state, but without the ability to proliferate",
"IL6: interleukin 6, leukemia inhibitory factor family member",,,did not negatively affect biPSCs
LIF: human leukemia inhibitory factor,,,did not negatively affect biPSCs
